From patent USRE47689E1, “Compounds for treating spinal muscular atrophy” (PTC Therapeutics, Inc., priority 2011, dated 2019)
Like-named read-outs stand apart in the source and are kept apart here.

Columns and labels:
[1] = tested on: SMN2 minigene (full length SMN2 minigene mRNA containing SMN2 exon 7); experiment: SMN2 minigene mRNA splicing RT-qPCR assay in cultured cells; assay type: cell-based, human; details: Homo sapiens, HEK293-H, read-out: EC1.5x for production of full length SMN2 mRNA
Outline: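 Read-out: full-length (exon 7-included) SMN2 minigene mRNA by multiplex RT-qPCR with GAPDH, efficiency-corrected (1+E)^−Ct, GAPDH-normalized and divided by vehicle. Stably transfected HEK293H cells, 24 h compound exposure, duplicates per concentration. Value is EC1.5x, reported as star ranges.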

[2] = tested on: Smn protein; experiment: Smn protein assay in cultured cells (SMN HTRF); assay type: cell-based, human; details: 48 hours; for EC1.5x (concentration giving 1.5-fold Smn protein increase): SMA Type 1 patient fibroblast cells (GM03813), 7-point concentration curve, SMN HTRF, concentration producing 1.5 times Smn protein vs DMSO vehicle control, read-out: EC1.5x for Smn protein expression; for maximum fold (Fold) increase of Smn protein: SMA patient fibroblast cells, 7-point concentration data, fold increase relative to vehicle control (SMN HTRF)
Outline: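 Lysates in RIPA with protease inhibitors are incubated overnight at room temperature with HTRF anti-SMN antibodies. EC1.5x is derived from fold increase in ΔF over vehicle.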

[3] = HEK293H cells stably transfected with SMN2-A minigene, 24 hours, 7-point concentration curve, 1.5-fold relative to vehicle-treated cells

| SMILES | EC (1.5-fold) [1, 3] | EC1.5x (concentration giving 1.5-fold Smn protein increase) [2] | maximum fold (Fold) increase of Smn protein [2] | melting point | EC (1.5-fold) ([1]; 24 h) |
| --- | --- | --- | --- | --- | --- |
| COc1cccn2cc(-c3cc4ccc(N5C[C@@H](C)N[C@@H](C)C5)cc4oc3=O)nc12 [Compound 418, 7-[(3R,5 S)-3,5-dimethylpiperazin-1-yl]-3-(8-methoxyimidazo[1,2-a]pyridin-2-yl)-2H-chromen-2-one] | 1 to 3 µM | 300 to 1000 nM | **** (fold increase between >1.5 and ≤1.65) | 184 to 186 °C |  |
| CN(C)CCN(C)c1ccc2cc(-c3cn4ccsc4n3)c(=O)oc2c1 [Compound 202, 7-{[2-(dimethylamino)ethyl](methyl)amino}-3-(imidazo[2,1-b][1,3]thiazol-6-yl)-2H-chromen-2-one] | 0.3 to 1 µM |  | ** (fold increase between >1.2 and ≤1.35) | 185 to 188 °C |  |
| Cc1cn2cc(-c3cc4ccc(N(C)[C@@H]5CCN(C)C5)cc4oc3=O)nc2c(C)n1 [Compound 707, 3-(6,8-dimethylimidazo[1,2-a]pyrazin-2-yl)-7-{methyl[(3R)-1-methylpyrrolidin-3-yl]amino}-2H-chromen-2-one] | < 0.1 µM | 300 to 1000 nM | **** (fold increase between >1.5 and ≤1.65) | 179 to 186 °C |  |
| Cc1cc(F)c2nc(-c3cc4ccc(N5CCNC(C)(C)C5)cc4oc3=O)cn2c1 [Compound 426, 7-(3,3-dimethylpiperazin-1-yl)-3-(8-fluoro-6-methylimidazo[1,2-a]pyridin-2-yl)-2H-chromen-2-one] | 0.1 to 0.3 µM |  | *** (fold increase between >1.35 and ≤1.5) | 275 to 284 °C |  |
| CCN1CCN(c2ccc3cc(-c4cccc(OC)n4)c(=O)oc3c2)CC1 [Compound 360, 7-(4-ethylpiperazin-1-yl)-3-(6-methoxypyridin-2-yl)-2H-chromen-2-one] | 1 to 3 µM |  | * (maximum fold increase of ≤1.2) | 145 to 147 °C |  |
| Cc1cn2cc(-c3cc4ccc(N5C[C@H]6CNC[C@H]6C5)cc4oc3=O)nc2cn1 [Compound 718, 7-[(3aR,6aS)-hexahydropyrrolo[3,4-c]pyrrol-2(1H)-yl]-3-(6-methylimidazo[1,2-a]pyrazin-2-yl)-2H-chromen-2-one] | < 0.1 µM | < 300 nM | **** (fold increase between >1.5 and ≤1.65) | 282 to 292 °C |  |
| Cc1cn2cc(-c3cc4ccc(N5CCC(CN)CC5)cc4oc3=O)cc2c(C)n1 [Compound 784, 7-[4-(aminomethyl)piperidin-1-yl]-3-(1,3-dimethylpyrrolo[1,2-a]pyrazin-7-yl)-2H-chromen-2-one] | 1 to 3 µM |  | ** (fold increase between >1.2 and ≤1.35) | 256 to 259 °C |  |
| Cc1cn2cc(-c3cc4ccc(O[C@@H]5CCN(C)C5)cc4oc3=O)nc2c(C)n1 [Compound 889, 3-(6,8-dimethylimidazo[1,2-a]pyrazin-2-yl)-7-{[(3R)-1-methylpyrrolidin-3-yl]oxy}-2H-chromen-2-one] | < 0.1 µM | < 300 nM | ***** (fold increase >1.65) | 195 to 202 °C |  |
| Cc1nn2cc(-c3cc4ccc(N5CCCN(C)CC5)cc4oc3=O)nc2s1 [Compound 451, 7-(4-methyl-1,4-diazepan-1-yl)-3-(2-methylimidazo[2,1-b][1,3,4]thiadiazol-6-yl)-2H-chromen-2-one] | 1 to 3 µM |  | *** (fold increase between >1.35 and ≤1.5) | 191 to 195 °C |  |
| Cc1ccn2cc(-c3cc4ccc(NCCN(C)C)cc4oc3=O)nc2c1 [Compound 470, 7-{[2-(dimethylamino)ethyl]amino}-3-(7-methylimidazo[1,2-a]pyridin-2-yl)-2H-chromen-2-one] | 1 to 3 µM |  | * (maximum fold increase of ≤1.2) | 156 to 159 °C |  |
| O=c1oc2cc(N3CCNCC3)ccc2cc1-c1nc2ccccc2[nH]1 [Compound 313, 3-(1H-benzimidazol-2-yl)-7-(piperazin-1-yl)-2H-chromen-2-one] | 0.3 to 1 µM |  | * (maximum fold increase of ≤1.2) | 254 to 258 °C |  |
| Cc1cn2cc(-c3cc4ccc(N5CCC(N(C)C)C5)cc4oc3=O)nc2s1 (stereo not shown) [Compound 154, 7-[3-(dimethylamino)pyrrolidin-1-yl]-3-(2-methylimidazo[2,1-b][1,3]thiazol-6-yl)-2H-chromen-2-one] | 3 to 30 µM |  | * (maximum fold increase of ≤1.2) | 180 to 183 °C |  |
| Cc1ccn2cc(-c3cc4ccc(N5CCN6CCC[C@H]6C5)cc4oc3=O)nc2c1 [Compound 534, 7-[(8aS)-hexahydropyrrolo[1,2-a]pyrazin-2(1H)-yl]-3-(7-methylimidazo[1,2-a]pyridin-2-yl)-2H-chromen-2-one] | 1 to 3 µM |  | *** (fold increase between >1.35 and ≤1.5) | 258 to 265 °C |  |
| Cc1nn2cc(-c3cc4ccc(N5CCCNCC5)cc4oc3=O)nc2s1 [Compound 450, 7-(1,4-diazepan-1-yl)-3-(2-methylimidazo[2,1-b][1,3,4]thiadiazol-6-yl)-2H-chromen-2-one] | 1 to 3 µM | 1000 to 3000 nM | *** (fold increase between >1.35 and ≤1.5) | 215 to 218 °C |  |
| COc1cc(OC)cc(-c2cc3ccc(N4CCCN(C)CC4)cc3oc2=O)c1 [Compound 411, 3-(3,5-dimethoxyphenyl)-7-(4-methyl-1,4-diazepan-1-yl)-2H-chromen-2-one] | 3 to 30 µM |  | * (maximum fold increase of ≤1.2) | 151 to 153 °C |  |
| C[C@@H]1CN(c2ccc3cc(-c4cc5cnccc5s4)c(=O)oc3c2)C[C@H](C)N1 [Cpd 630, 7-[(3R,5S)-3,5-dimethylpiperazin-1-yl]-3-(thieno[3,2-c]pyridin-2-yl)-2H-chromen-2-one] | 0.3 to 1 µM |  | * (maximum fold increase of ≤1.2) | 163 to 165 °C |  |
| Cc1cc(F)c2nc(-c3cc4ccc(N5CC6CCC(C5)N6C)cc4oc3=O)cn2c1 [Compound 613, 3-(8-fluoro-6-methylimidazo[1,2-a]pyridin-2-yl)-7-(8-methyl-3,8-diazabicyclo[3.2.1]oct-3-yl)-2H-chromen-2-one] |  |  | ** (fold increase between >1.2 and ≤1.35) | 267 to 274 °C | 0.3 to 1 µM |
| Cc1cn2cc(-c3cc4ccc(N5CC[C@@H](N(C)C)C5)cc4oc3=O)nc2c(C)n1 [Compound 690, 7-[(3R)-3-(dimethylamino)pyrrolidin-1-yl]-3-(6,8-dimethylimidazo[1,2-a]pyrazin-2-yl)-2H-chromen-2-one] | 0.1 to 0.3 µM | 300 to 1000 nM | **** (fold increase between >1.5 and ≤1.65) | 239 to 242 °C |  |
| C[C@@H]1CN(c2ccc3cc(-c4nc5c(F)cccc5o4)c(=O)oc3c2)C[C@H](C)N1 [Compound 39, 7-[(3R,5S)-3,5-dimethylpiperazin-1-yl]-3-(4-fluoro-1,3-benzoxazol-2-yl)-2H-chromen-2-one] | 0.3 to 1 µM | 3000 to 10000 nM | *** (fold increase between >1.35 and ≤1.5) | 242 to 243 °C |  |
| Cc1cn2cc(-c3cc4ccc(CCCNC(CO)CO)cc4oc3=O)nc2c(C)n1 [Compound 882, 7-{3-[(1,3-dihydroxypropan-2-yl)amino]propyl}-3-(6,8-dimethylimidazo[1,2-a]pyrazin-2-yl)-2H-chromen-2-one] | < 0.1 µM | < 300 nM | **** (fold increase between >1.5 and ≤1.65) | 195 to 199 °C |  |
| Cc1cn2cc(-c3cc4ccc(CN5CCCCC5)cc4oc3=O)nc2c(C)n1 [Compound 847, 3-(6,8-dimethylimidazo[1,2-a]pyrazin-2-yl)-7-(piperidin-1-ylmethyl)-2H-chromen-2-one] | 1 to 3 µM |  | ** (fold increase between >1.2 and ≤1.35) | 191 to 193 °C |  |
| Cc1cn2cc(-c3cc4ccc(N5CCN6CCCCC6C5)cc4oc3=O)nc2cn1 (stereo not shown) [Compound 635, 3-(6-methylimidazo[1,2-a]pyrazin-2-yl)-7-(octahydro-2H-pyrido[1,2-a]pyrazin-2-yl)-2H-chromen-2-one] | < 0.1 µM | < 300 nM | **** (fold increase between >1.5 and ≤1.65) | 275 to 277 °C |  |
| Cc1cn2cc(-c3cc4ccc(CCCN5CCN(C)CC5)cc4oc3=O)nc2c(C)n1 [Compound 860, 3-(6,8-dimethylimidazo[1,2-a]pyrazin-2-yl)-7-[3-(4-methylpiperazin-1-yl)propyl]-2H-chromen-2-one] | 0.3 to 1 µM | 1000 to 3000 nM | **** (fold increase between >1.5 and ≤1.65) | 219 to 223 °C |  |
